Results reported in patent US11142527B2, “Dihydropyrimidine compounds and uses thereof in medicine” (SUNSHINE LAKE PHARMA CO., LTD., priority 2017, dated 2021).

Tested on: HBV
Assay: Test of anti HBV activity in vitro (viral DNA by qPCR)
Format: cell-based
Settings: Hepatitis B virus; HepG2.2.15 cells, viral DNA in cell culture supernatant by qPCR; read-out: EC50 values of the compound of the invention on viral replication
Method: Test 1: Test Method of Calculating Anti HBV EC50
HBV Cell Line and Culture Conditions
HepG2.2.15 (SELLS, PNAS, 1987 and SELLS, JV, 1988) chromosomes have an integrated complete HBV genome, and stably express viral RNA and viral protein. HepG2.2.15 cells can secrete mature HBV particles, HBsAg and HBeAg, to medium. HepG2.2.15 cells were cultured in DMEM containing 10% fetal bovine serum, 100 U/mL penicillin, 100 U/mL streptomycin, 1% non essential amino acid, 1 mM sodium pyruvate and 300 μg/mL G418.
Viral particles DNA secreted from HepG2.2.15 cells can be quantified by qPCR, and the effect of the compound on viral replication can be detected.
Test of Anti HBV Activity In Vitro
8000 HepG 2.2.15 cells per well were seeded into a 96-well plate, the plate was cultured at 37° C. and 5% CO2 for 3 days till the cells grew to full wells. Old liquid medium can be removed and replaced with new medium (200 μL) on day 0.
Formulating the compound and treating the cells in the experiment of anti virus: the compound was dissolved in DMSO to a concentration of 30 mM, and then the compound solution was diluted with DMSO to a concentration of 800 μM, and then eight dilutions at 4 fold were performed, the highest concentration is 800 μM. The serial diluted compound was added to the above plate at 1 μL per well, the highest final concentration in the experiment is 4 μM (200 fold dilution). TDF (tenofovir dipiroxil fumarate, Selleck, Cat S1400) has a highest concentration of 4 μM as a positive control. 1 μL of DMSO was added in to the […] at a final concentration of 0.5%, TDF was added in to the […] at a final concentration of 1 μM.
Detection of Viral Genomic DNA by aPCR
Primer: HBV-For-202, […]; HBV-Rev-315, […]. Copies of virus can be calculated using a standard curve plotted by using plasmid containing HBV genome and using SYBR Premix Ex Taq II—Takara DRR081S kit and 1 μL cell culture supernatant as a template. EC50 values of the compound on viral replication were calculated by a four parametric nonlinear regression model using Graphpad Prism 5 software to manage concentration—viral copy number.

| Compound | EC50 [nM] |
| --- | --- |
| COC(=O)C1=C(CN2CCN3C(=O)N(c4ccc(C5(C(=O)O)CCC5)cc4)C[C@@H]3C2)NC(c2nccs2)=N[C@H]1c1ccc(F)cc1Cl [Example 28, 1-(4-((S)-7-(((R)-6-(2-chloro-4-fluorophenyl)-5-(methoxycarbonyl)-2-(thiazol-2-yl)-3,6-dihydropyrimidin-4-yl)methyl)-3-oxohexahydroimidazo[1,5-a]pyrazin-2(3H)-yl)phenyl)cyclobutane carboxylic acid] | 4 |
| COC(=O)C1=C(CN2CCN3C(=O)N(c4ccc(C5(C(=O)O)CCCC5)cc4)C[C@@H]3C2)NC(c2nccs2)=N[C@H]1c1ccc(F)cc1Cl [Example 29, 1-(4-((S)-7-(((R)-6-(2-chloro-4-fluorophenyl)-5-(methoxycarbonyl)-2-(thiazol-2-yl)-3,6-dihydroprimidin-4-yl)methyl)-3-oxohexahydroimidazo[1,5-a]pyrazin-2(3H)-yl)phenyl) cyclopentane carboxylic acid] | 6 |
| COC(=O)C1=C(CN2CCN3C(=O)N(c4ccc(C5(C(=O)O)CCCCC5)cc4)C[C@@H]3C2)NC(c2nccs2)=N[C@H]1c1ccc(F)cc1Cl [Example 30, 1-(4-((S)-7-(((R)-6-(2-chloro-4-fluorophenyl)-5-(methoxycarbonyl)-2-(thiazol-2-yl)-3,6-dihydropyrimidin-4-yl)methyl)-3-oxohexahydroimidazo[1,5-a]pyrazin-2(3H)-yl)phenyl) cyclohexanecarboxylic acid] | 9 |
| COC(=O)C1=C(CN2CCN3C(=O)N(CC#Cc4ccc(C(N)=O)cc4)C[C@@H]3C2)NC(c2nccs2)=N[C@H]1c1ccc(F)cc1Cl [Example 39, (R)-methyl 6-(((S)-2-(3-(4-carbamoylphenyl)prop-2-yn-1-yl)-3-oxohexahydroimidazo[1,5-a]pyrazin-7(1H)-yl)methyl)-4-(2-chloro-4-fluorophenyl)-2-(thiazol-2-yl)-1,4-dihydropyrimidine-5-carboxylate] | 6.6 |
| CONC(=O)c1ccc(C#CCN2C[C@@H]3CN(CC4=C(C(=O)OC)[C@H](c5ccc(F)cc5Cl)N=C(c5nccs5)N4)CCN3C2=O)cc1 [Example 40, (R)-methyl 4-(2-chloro-4-fluorophenyl)-6-(((S)-2-(3-(4-(methoxycarbamoyl)phenyl)prop-2-yn-1-yl)-3-oxohexahydroimidazo[1,5-a]pyrazin-7(1H)-yl)methyl)-2-(thiazol-2-yl)-1,4-dihydropyrimidine-5-carboxylate] | 8.2 |
| COC(=O)C1=C(CN2CCN3C(=O)N(CC#Cc4ccc(OC)cc4)C[C@@H]3C2)NC(c2nccs2)=N[C@H]1c1ccc(F)cc1Cl [Example 45, (R)-methyl 4-(2-chloro-4-fluorophenyl)-6-(((S)-2-(3-(4-methoxyphenyl)prop-2-yn-1-yl)-3-oxohexahydroimidazo[1,5-a]pyrazin-7(1H)-yl)methyl)-2-(thiazol-2-yl)-1,4-dihydropyrimidine-5-carboxylate] | 14.4 |
| COC(=O)C1=C(CN2CCN3C(=O)N(CC#Cc4ccc(C(=O)O)c(OC)c4)C[C@@H]3C2)NC(c2nccs2)=N[C@H]1c1ccc(F)cc1Cl [Example 52, 4-(3-((S)-7-(((R)-6-(2-chloro-4-fluorophenyl)-5-(methoxycarbonyl)-2-(thiazol-2-yl)-3,6-dihydropyrimidin-4-yl)methyl)-3-oxohexahydroimidazo[1,5-a]pyrazin-2(3H)-yl)prop-1-yn-1-yl)-2-methoxybenzoic acid] | 41.8 |
| COC(=O)C1=C(CN2CCN3C(=O)N(CC#Cc4ccc(C(=O)O)cc4OC)C[C@@H]3C2)NC(c2nccs2)=N[C@H]1c1ccc(F)cc1Cl [Example 53, 4-(3-((S)-7-(((R)-6-(2-chloro-4-fluorophenyl)-5-(methoxycarbonyl)-2-(thiazol-2-yl)-3,6-dihydropyrimidin-4-yl)methyl)-3-oxohexahydroimidazo[1,5-a]pyrazin-2(3H)-yl)prop-1-yn-1-yl)-3-methoxybenzoic acid] | 34.1 |
| COC(=O)C1=C(CN2CCN3C(=O)N(c4ccc(N5CCOC(CC(=O)O)C5)cc4)C[C@@H]3C2)NC(c2nccs2)=N[C@H]1c1ccc(F)cc1Cl (stereo partly drawn) [Example 76, 2-(4-(4-((S)-7-(((R)-6-(2-chloro-4-fluorophenyl)-5-(methoxycarbonyl)-2-(thiazol-2-yl)-3,6-dihydropyrimidin-4-yl)methyl)-3-oxohexahydroimidazo[1,5-a]pyrazin-2(3H)-yl)phenyl)morpholin-2-yl)acetic acid] | 5.4 |
| COC(=O)C1=C(CN2CCN3C(=O)N(c4ccc(Oc5ccc(C(=O)O)cn5)cc4)C[C@@H]3C2)NC(c2nccs2)=N[C@H]1c1ccc(F)cc1Cl [Example 78, 6-(4-((S)-7-(((R)-6-(2-chloro-4-fluorophenyl)-5-(methoxycarbonyl)-2-(thiazol-2-yl)-3,6-dihydropyrimidin-4-yl)methyl)-3-oxohexahydroimidazo[1,5-a]pyrazin-2(3H)-yl)phenoxy)nicotinic acid] | 38.7 |
| COC(=O)C1=C(CN2CCN3C(=O)N(c4ccc(Oc5ccc(CCC(=O)O)cc5F)cc4F)C[C@@H]3C2)NC(c2nccs2)=N[C@H]1c1ccc(F)cc1Cl [Example 101, 3-(4-(4-((S)-7-(((R)-6-(2-chloro-4-fluorophenyl)-5-(methoxycarbonyl)-2-(thiazol-2-yl)-3,6-dihydropyrimidin-4-yl)methyl)-3-oxohexahydroimidazo[1,5-a]pyrazin-2(3H)-yl)-3-fluorophenoxy)-3-fluorophenyl)propanoic acid] | 14.8 |
| COC(=O)C1=C(CN2CCN3C(=O)N(c4ccc(-c5cnc(C)[nH]5)cc4)C[C@@H]3C2)NC(c2nccs2)=N[C@H]1c1ccc(F)cc1Cl [Example 107, (R)-methyl 4-(2-chloro-4-fluorophenyl)-6-(((S)-2-(4-(2-methyl-1H-imidazol-5-yl)phenyl)-3-oxohexahydroimidazo[1,5-a]pyrazin-7(1H)-yl)methyl)-2-(thiazol-2-yl)-1,4-dihydropyrimidine-5-carboxylate] | 6.5 |
| COC(=O)C1=C(CN2CCN3C(=O)N(c4ccc5[nH]c(C6CCCN6C)nc5c4)C[C@@H]3C2)NC(c2nccs2)=N[C@H]1c1ccc(F)cc1Cl (stereo partly drawn) [Example 108, (4R)-methyl 4-(2-chloro-4-fluorophenyl)-6-(((8aS)-2-(2-(1-methylpyrrolidin-2-yl)-1H-benzo[d]imidazol-5-yl)-3-oxohexahydroimidazo[1,5-a]pyrazin-7(1H)-yl)methyl)-2-(thiazol-2-yl)-1,4-dihydropyrimidine-5-carboxylate] | 6.8 |
| CCc1c[nH]c(-c2ccc(N3C[C@@H]4CN(CC5=C(C(=O)OC)[C@H](c6ccc(F)cc6Cl)N=C(c6nccs6)N5)CCN4C3=O)cc2)n1 [Example 109, (R)-methyl 4-(2-chloro-4-fluorophenyl)-6-(((S)-2-(4-(4-ethyl-1H-imidazol-2-yl)phenyl)-3-oxohexahydroimidazo[1,5-a]pyrazin-7(1H)-yl)methyl)-2-(thiazol-2-yl)-1,4-dihydropyrimidine-5-carboxylate] | 12.4 |
| COC(=O)C1=C(CN2CCN3C(=O)N(c4ccc(-c5nc(C6CCCCC6)c[nH]5)cc4)C[C@@H]3C2)NC(c2nccs2)=N[C@H]1c1ccc(F)cc1Cl [Example 110, (R)-methyl 4-(2-chloro-4-fluorophenyl)-6-(((S)-2-(4-(5-cyclohexyl-1H-imidazol-2-yl)phenyl)-3-oxohexahydroimidazo[1,5-a]pyrazin-7(1H)-yl)methyl)-2-(thiazol-2-yl)-1,4-dihydropyrimidine-5-carboxylate] | 30.5 |
| COC(=O)C1=C(CN2CCN3C(=O)N(c4ccc(-c5ccc(C(=O)O)cc5)cc4F)C[C@@H]3C2)NC(c2nccs2)=N[C@H]1c1ccc(F)cc1Cl [Example 113, 4′-((S)-7-(((R)-6-(2-chloro-4-fluorophenyl)-5-(methoxycarbonyl)-2-(thiazol-2-yl)-3,6-dihydropyrimidin-4-yl)methyl)-3-oxohexahydroimidazo[1,5-a]pyrazin-2(3H)-yl)-3′-fluoro-[1,1′-biphenyl]-4-carboxylic acid] | 23.9 |
| COC(=O)C1=C(CN2CCN3C(=O)N(c4ccc(-c5ccc(C(=O)O)cc5F)cc4)C[C@@H]3C2)NC(c2nccs2)=N[C@H]1c1ccc(F)cc1Cl [Example 115, 4′-((S)-7-(((R)-6-(2-chloro-4-fluorophenyl)-5-(methoxycarbonyl)-2-(thiazol-2-yl)-3,6-dihydropyrimidin-4-yl)methyl)-3-oxohexahydroimidazo[1,5-a]pyrazin-2(3H)-yl)-2-fluoro-[1,1′-biphenyl]-4-carboxylic acid] | 17.2 |
| COC(=O)C1=C(CN2CCN3C(=O)N(c4ccc(-c5ccc(C(=O)O)cc5F)cc4F)C[C@@H]3C2)NC(c2nccs2)=N[C@H]1c1ccc(F)cc1Cl [Example 120] | 25.5 |
